# Reference: patent US12637478B2, “Compound, preparation method thereof, and antibiotic composition comprising same” (priority 2020, dated 2026)
# Read-outs that look alike come from different tables or passages of the source.
# Columns and labels:
# E. faecalis^LinR = test: MIC by broth microdilution (aerobic pathogens), test strain 9; format: cell-based, Linezolid resistant Enterococcus faecalis; details: Enterococcus faecalis
# Method: (§1) The antibacterial activity of the compounds of Examples 1 to 48 of the present invention against aerobic pathogens were evaluated by measuring the minimum concentration of the antibiotic capable of inhibiting bacterial growth by 90% compared to the growth of the non-drug treated control group. MIC was measured by the broth microdilution method based on CLSI standards [Reference: Clinical and Laboratory Standards Institute Document. (2000) Methods for Dilution Antimicrobial Susceptibility Test for Bacteria that Grow Aerobically-Fifth Edition: M7-A5. CLSI, Villanova, PA].
# (§2) All 13 strains such as methicillin susceptible Staphylococcus aureus (MSSA), methicillin resistant Staphylococcus aureus (MRSA), Vancomycin resistant Staphylococcus aureus (VRSA), Staphylococcus epidermidis, methicillin resistant Staphylococcus epidermidis, Enterococcus faecalis, Vancomycin resistant Enterococcus faecalis, Enterococcus faecium, Vancomycin resistant Enterococcus faecium were used.
# M. avium = test: MIC by resazurin (REMA) assay against Mycobacterium, test strain 21; format: cell-based
# Method: (§3) In order to test the antibacterial activity, the medium of Mycobacterium cultured to late log phase was diluted so as to be 4.0×10^5 cells/well in Middlebrook 7H10 agar medium (Difco) supplemented with 10% oleic acid, albumin, dextrose, catalase (OADC, Becton Dickinson) and 0.05% Tween 80 (Sigma Aldrich) and was dispensed into a 96-well plate. The compounds were treated so that DMSO was 1%, and after 3 days, a 0.025% resazurin (REMA) solution was dispensed, and the growth of the bacteria was confirmed after culturing. The MIC value was measured for the antibacterial activity through resazurin (excitation 530 nm, emission 590 nm).
# S. aureus^MS [1] = test: MIC by broth microdilution (aerobic pathogens), test strain 2; format: cell-based; details: Staphylococcus aureus
# Method: as §1, §2
# M. abscessus = test: MIC by resazurin (REMA) assay against Mycobacterium, test strain 23; format: cell-based; details: Mycobacteroides abscessus; test strain 23, M. abscessus, resazurin; read-out: MIC
# Method: as §3
# M. intracelluare = test: MIC by resazurin (REMA) assay against Mycobacterium, test strain 22; format: cell-based; details: Mycobacterium intracellulare; test strain 22, M. intracelluare, resazurin; read-out: MIC
# Method: as §3
# S. aureus^MS [2] = test: MIC by broth microdilution (aerobic pathogens), test strain 1; format: cell-based; details: Staphylococcus aureus
# Method: as §1, §2
# C. difficile 152 = test: MIC by agar dilution against Clostridioides difficile, test strain 14; format: cell-based
# E. faecalis = test: MIC by broth microdilution (aerobic pathogens), test strain 7; format: cell-based; details: Enterococcus faecalis
# Method: as §1, §2
# C. difficile 181 = test: MIC by agar dilution against Clostridioides difficile, test strain 19; format: cell-based; details: test strain 19, C. difficile 181, anaerobic, agar dilution, read-out: MIC
# C. difficile 174 = test: MIC by agar dilution against Clostridioides difficile, test strain 18; format: cell-based
# E. faecium = test: MIC by broth microdilution (aerobic pathogens), test strain 10; format: cell-based; details: Enterococcus faecium
# Method: as §1, §2
# S. epidermis^MR = test: MIC by broth microdilution (aerobic pathogens), test strain 6; format: cell-based, Methicillin resistant Staphylococcus epidermidis; details: Staphylococcus epidermidis
# Method: as §1, §2
# C. difficile 161 = test: MIC by agar dilution against Clostridioides difficile, test strain 16; format: cell-based
# E. faecalis^VanA = test: MIC by broth microdilution (aerobic pathogens), test strain 8; format: cell-based, Vancomycin resistant Enterococcus faecalis; details: Enterococcus faecalis
# Method: as §1, §2
# C. difficile 9689 = test: MIC by agar dilution against Clostridioides difficile, test strain 13; format: cell-based
# C. difficile 173 = test: MIC by agar dilution against Clostridioides difficile, test strain 17; format: cell-based; details: test strain 17, C. difficile 173, anaerobic, agar dilution, read-out: MIC
# S. epidermis = test: MIC by broth microdilution (aerobic pathogens), test strain 5; format: cell-based; details: Staphylococcus epidermidis
# Method: as §1, §2
# C. difficile 159 = test: MIC by agar dilution against Clostridioides difficile, test strain 15; format: cell-based
# S. aureus^VR = test: MIC by broth microdilution (aerobic pathogens), test strain 4; format: cell-based, Vancomycin resistant Staphylococcus aureus; details: Staphylococcus aureus
# Method: as §1, §2
# E. faecium^LinR = test: MIC by broth microdilution (aerobic pathogens), test strain 12; format: cell-based, Linezolid resistant Enterococcus faecium; details: Enterococcus faecium
# Method: as §1, §2
# S. aureus^MR = test: MIC by broth microdilution (aerobic pathogens), test strain 3; format: cell-based, Methicillin resistant Staphylococcus aureus; details: Staphylococcus aureus
# Method: as §1, §2
# E. faecium^VRE = test: MIC by broth microdilution (aerobic pathogens), test strain 11; format: cell-based, Vancomycin resistant Enterococcus faecium; details: Enterococcus faecium, VRE
# Method: as §1, §2
# [3] = test strain 9, E. faecalis^LinR (linezolid resistant), read-out: MIC
# [4] = test strain 21, M. avium, resazurin, read-out: MIC
# [5] = test strain 2, S. aureus^MS, read-out: MIC
# [6] = test strain 1, S. aureus^MS, read-out: MIC
# [7] = test strain 14, C. difficile 152, anaerobic, agar dilution, read-out: MIC
# [8] = test strain 18, C. difficile 174, anaerobic, agar dilution, read-out: MIC
# [9] = test strain 16, C. difficile 161, anaerobic, agar dilution, read-out: MIC
# [10] = test strain 13, C. difficile 9689, anaerobic, agar dilution, read-out: MIC
MIC (E. faecalis^LinR; [3]),MIC (M. avium; [4]),MIC (S. aureus^MS [1]; [5]),MIC (S. aureus^MS [2]; [6]),SMILES,MIC (C. difficile 152; [7]),MIC (C. difficile 181),MIC (C. difficile 174; [8]),MIC (C. difficile 161; [9]),MIC (C. difficile 9689; [10]),MIC (C. difficile 173),MIC (E. faecalis),MIC (E. faecalis^LinR),MIC (S. aureus^VR),MIC (E. faecium),MIC (E. faecium^LinR),MIC (S. aureus^MS [1]),MIC (S. epidermis^MR),MIC (S. aureus^MS [2]),MIC (S. epidermis),MIC (E. faecium^VRE),other results
0.5 µg/mL,0.13 µg/mL,0.5 µg/mL,0.25 µg/mL,C/C=C1\NC(=O)[C@H]([C@@H](C)O)NC(=O)c2csc(n2)-c2ccc(-c3nc(-c4nc(C(=O)NC5(C(=O)NCCN6CCN(C[C@@H](O)CO)CC6)CC5)cs4)cs3)nc2-c2csc(n2)[C@H]([C@@H](C)O)NC(=O)c2csc(n2)[C@H](C(C)C)NC(=O)c2csc1n2 [Compound 28],,,,,,,,,,,,,,,,,MIC (M. abscessus): 0.49 µg/mL; MIC (M. intracelluare): 0.115 µg/mL
1 µg/mL,0.135 µg/mL,1 µg/mL,1 µg/mL,C/C=C1\NC(=O)[C@H]([C@@H](C)O)NC(=O)c2csc(n2)-c2ccc(-c3nc(-c4nc(C(=O)NC5(C(=O)NCCCN6CCN(C(C)C)CC6)CC5)cs4)cs3)nc2-c2csc(n2)[C@H]([C@@H](C)O)NC(=O)c2csc(n2)[C@H](C(C)C)NC(=O)c2csc1n2 [Compound 12],1 µg/mL,0.125 µg/mL,0.125 µg/mL,0.5 µg/mL,0.5 µg/mL,1 µg/mL,,,,,,,,,,,"MIC (E. faecalis; test strain 7, E. faecalis, read-out: MIC): 1 µg/mL; MIC (E. faecium; test strain 10, E. faecium, read-out: MIC): 1 µg/mL; MIC (S. epidermis^MR; test strain 6, S. epidermis^MR (methicillin resistant), read-out: MIC): 1 µg/mL; MIC (E. faecalis^VanA; test strain 8, E. faecalis^VanA (vancomycin resistant), read-out: MIC): 1 µg/mL; MIC (S. epidermis; test strain 5, S. epidermis, read-out: MIC): 0.5 µg/mL"
,,,,C/C=C(\NC(=O)c1csc(-c2csc(-c3ccc4c(n3)-c3csc(n3)[C@H]([C@@H](C)O)NC(=O)c3csc(n3)[C@H](C(C)C)NC(=O)c3csc(n3)/C(=C/C)NC(=O)[C@H]([C@@H](C)O)NC(=O)c3csc-4n3)n2)n1)C(=O)NCCCN1C(=O)CNC1=O [Compound 40],,,,,,,0.25 µg/mL,0.5 µg/mL,0.5 µg/mL,0.5 µg/mL,1 µg/mL,0.5 µg/mL,0.25 µg/mL,0.5 µg/mL,0.5 µg/mL,1 µg/mL,MIC (C. difficile 152; 152): 0.5 µg/mL; MIC (C. difficile 159; 159): 1 µg/mL; MIC (C. difficile 174; 174): 0.5 µg/mL; MIC (C. difficile 161; 161): 0.5 µg/mL; MIC (S. aureus^MR): 1 µg/mL; MIC (E. faecalis^VanA): 0.5 µg/mL; MIC (C. difficile 9689; 9689): 1 µg/mL
,,,,C/C=C1\NC(=O)[C@H]([C@@H](C)O)NC(=O)c2csc(n2)-c2ccc(-c3nc(-c4nc(C(=O)NC5(C(=O)NCCCN6C(=O)NC(C)C6=O)CC5)cs4)cs3)nc2-c2csc(n2)[C@H]([C@@H](C)O)NC(=O)c2csc(n2)[C@H](C(C)C)NC(=O)c2csc1n2 (stereo partly drawn) [Compound 37],,,,,,,0.5 µg/mL,1 µg/mL,,0.5 µg/mL,,0.25 µg/mL,0.25 µg/mL,0.25 µg/mL,0.25 µg/mL,1 µg/mL,MIC (M. avium): 0.082 µg/mL
,,,,"CN[C@H](CC(C)C)C(=O)N[C@H]1C(=O)N[C@@H](CC(N)=O)C(=O)N[C@H]2C(=O)N[C@H]3C(=O)N[C@H](C(=O)N[C@H](C(=O)O)c4cc(O)cc(O)c4-c4cc3ccc4O)[C@H](O)c3ccc(c(Cl)c3)Oc3cc2cc(c3O[C@@H]2O[C@H](CO)[C@@H](O)[C@H](O)[C@H]2O[C@H]2C[C@](C)(N)[C@H](O)[C@H](C)O2)Oc2ccc(cc2Cl)[C@H]1O [Van, Vancomycin, reference compound]",1 µg/mL,0.5 µg/mL,0.5 µg/mL,1 µg/mL,2 µg/mL,0.5 µg/mL,1 µg/mL,1 µg/mL,> 128 µg/mL,0.5 µg/mL,0.5 µg/mL,0.25 µg/mL,0.5 µg/mL,0.5 µg/mL,1 µg/mL,> 128 µg/mL,"MIC (C. difficile 159; test strain 15, C. difficile 159, anaerobic, agar dilution, read-out: MIC): 2 µg/mL; MIC (S. aureus^MR): 0.5 µg/mL; MIC (E. faecalis^VanA): > 128 µg/mL"
